Data as given in US20080280983A1, “METHODS OF TREATING RETT SYNDROME” (CeNeRx BioPharma, priority 2007, published 2008).
Where two headings read alike, the source gives them in different places.

How the values were obtained:
[1] = system: strychnine-induced mortality; conditions: for type of antagonism of strychnine from slope of dose/mortality line: 100 mg/Kg i.p. pretreatment
Experimental: Strychnine causes muscular convulsions and eventual death through asphyxia or sheer exhaustion in mammals.
Strychnine was administered i.p., dissolved in normal saline at a constant volume of 10 ml/kg. […] The number of deaths was recorded, starting 15 minutes after administration. Using data on deaths at each dose, the LD50, the 95% confidence intervals, and the line slope S were calculated.

CRH mRNA = conditions: sustained treatment, hypothalamus and cerebral cortex of rats; cited from earlier work
mice = assay: Rota-rod test; type: in vivo, mouse; conditions: 100 mg/Kg, versus untreated mice, FIG. 8A
From the text: Motor performance can be tested by measuring the length of time an animal can remain on a slowly rotating cylinder, as in the rota-rod test.

aged mice = assay: Taut thread test; type: in vivo, mouse
Experimental: In this test, aged mice are required to traverse a thread stretched between two points. Performance is measured by the time taken to reach the end and the number of resting positions adopted during the test.

CRH = CRH concentration in hypothalamus and cerebral cortex, foot-shock stress; type: in vivo, rat
From the text: As mentioned above, stress is known to be associated with release of CRH from the hypothalamus and activation of the HPA axis. This is paralleled by changes in the CRH content of different brain regions and alterations in the expression of messenger RNA (mRNA) for CRH.

mouse [2] = conditions: intravenous route; cited from earlier work
rat = conditions: in vivo, ip; cited from earlier work
[3] = system: isoniazide-induced convulsions; assay: Isoniazide-induced convulsions in rats; type: in vivo, rat; conditions: 1 hour prior to isoniazide 100 mg/kg i.p.
Experimental: The method of Reilly R. H. et al. (JAMA 152(14):1317; 1953), herein incorporated by reference in its entirety, was used in modified form. […] Both the ED50 and ED84 were calculated. In the second part of the test, the ED84 was administered at different times (0.5-1.0-1.5-2.0-3.0 hours) prior to isoniazide administration for the purpose of determining the duration of action and the curve of kinetic activity. Female rats fasted for 17 hours were used for the test.

GABA receptors = conditions: cited from earlier work
[4] = system: electroshock-induced convulsions; assay: Electroshock-induced convulsions in rats; type: in vivo, rat; conditions: 30 minutes before shock
Experimental: Male rats were studied using the method described by E. Chojnacka-Wojcik (Pol. J. Pharmacol. Pharm., 35:511-15, 1983), herein incorporated by reference in its entirety.
At 30 minutes after dosing, the animals were given a non-lethal electric shock (50 Hz, 50 mA, impulse train duration 0.2 s via corneal electrodes wetted in normal saline). […] The frequency of tonic and clonic convulsions among the treatment groups was analyzed using the Yates chi-square test .

rats [5] = assay: Water maze test; type: in vivo, rat; conditions: 100 mg/Kg
Experimental: The water maze test is designed to test the effect of drugs on learning and performance in a task that is performed under a stressful condition. After several trials under control conditions, rats learn to exit the water maze with greater speed and with fewer errors. Performance in this test can be improved by drugs that either reduce stress and/or enhance learning (e.g. muscarinic agonists). On the contrary, drugs that impair learning (e.g. scopolamine) can worsen performance. […] This indicates improved learning and retention.

rats [6] = assay: Open field behavior test; type: in vivo, rat
From the text: The open-field behavior test relies on the observation that rats exposed to a novel open environment display behaviors (exploratory ambulation, rearing, and dropping fecal boluses) that are thought to be naturally defensive and anticipatory of potential threats in the environment. Pharmacologic interventions that attenuate these behaviors may have utility in modifying pathologic fear or stress responses in a clinical context.

[7] = system: pentetrazol-induced convulsions; assay: Pentetrazol-induced convulsions in rats; type: in vivo, rat; conditions: for animals manifesting convulsions: 30 minutes before pentetrazol 80 mg/kg i.p.
Experimental: The method proposed by Goodman L. S. et al. (J. Pharmacol. Test Ther. 108:168; 1958) was used. […] After 30 minutes, pentylene tetrazol (80 mg/kg i.p.) was administered. The number of animals from each group who manifested at least one convulsion during the 30 minutes after injection was counted. The differences between treatments were statistically analyzed using the chi-square/Fisher exact test.

[8] = system: bicucullin-induced convulsions; assay: Bicucullin-induced convulsions in rats; type: in vivo, rat; conditions: for animals showing convulsions: 1 hour before bicuculline 4.5 mg/kg i.p., FIG. 4; for protection against convulsions: percent compared with controls
Experimental: The method described by Curtis D. R. et al. (Brain Res. 34:301; 1971), herein incorporated by reference in its entirety, was used in modified form.
One hour later, bicuculline was administered by intraperitoneal route at a dose of 4.5 mg/kg dissolved in 10 ml/kg NSS. The number of animals manifesting any type of convulsion was then counted. The protection conferred by the treatments was then calculated as percent compared with the controls. The statistical significance of the differences was analyzed using the Yates chi-square test.

mouse [9] = conditions: cited from earlier work

CC(C)(C)C(=O)NCCCC(=O)O [pivagabine, 4-[(2,2-dimethyl-1-oxopropyl)amino]butanoic acid]
effect on LD50 of strychnine ([1]; 100 mg/Kg i.p. 30 minutes prior to strychnine i.p., mice, FIG. 2): raised the LD50 of strychnine | type of antagonism of strychnine from slope of dose/mortality line ([1]; mice): nonspecific antagonism | abundance of CRH mRNA (CRH mRNA): increases the abundance of CRH mRNA | time remaining on the rotating cylinder (mice): significantly longer | number of resting positions adopted (aged mice; FIG. 9B): significantly less | time taken to traverse the thread (aged mice; versus control mice, FIG. 9A): significantly faster | effect on CRH concentration in the cerebral cortex (CRH; pivagabine alone (no foot shock), cerebral cortex): no effect | reduction of CRH concentration in the hypothalamus (CRH; pivagabine alone (no foot shock), hypothalamus): 52% | effects of foot-shock stress on CRH concentration (CRH; subchronic treatment, hypothalamus and cerebral cortex, FIGS. 12A and 12B): prevented the effects of foot-shock stress | LD50 (mouse [2]): 1750 mg/kg | dose up to which no toxic effects were observed (rat): 1000 mg/kg | protection against seizures ([3]; highest dose (oral doses 25-50-100-200 mg/Kg), FIG. 5): 90% | anticonvulsive effect, dose-effect relationship ([3]; oral 25-50-100-200 mg/Kg): dose-related increase | binding to GABA receptors (GABA receptors): does not appear to bind to GABA receptors | number of tonic convulsions in response to electric shock ([4]; 100 or 200 mg/Kg i.p., FIG. 1): significantly reduced | performance in later sessions (rats [5]; days 4 and 5): tended to be superior to that of controls | time to exit and number of errors made (rats [5]; rats): performed as well as the control group | number of rearing movements (rats [6]; 50 and 100 mg/Kg i.p., FIG. 6B): significantly reduced | ambulation, number of sectors explored per unit time (rats [6]; FIG. 6A): significant decrease | defecation, number of fecal boluses produced (rats [6]; FIG. 6C): significant decrease | animals manifesting convulsions ([7]; 100 mg/kg i.p., p<0.01, FIG. 3): 30% | animals showing convulsions ([8]; 100 mg/kg orally): 4/10 | animals showing convulsions ([8]; 200 mg/kg orally): 1/10 | protection against convulsions ([8]; high dose 200 mg/kg orally): 90% | anti-depressive and anxiolytic activity (mouse [9]): a certain anti-depressive and anxiolytic activity

Cc1ccccc1OCC(O)CO (stereo not drawn) [mephenesine]
type of antagonism of strychnine from slope of dose/mortality line ([1]; mice): competitive antagonism | effect on LD50 of strychnine ([1]; mouse, in vivo): raised the LD50 of strychnine

CCC1(c2ccccc2)C(=O)NC(=O)NC1=O [luminal sodium]
tonic and clonic convulsions in response to electric shock ([4]; luminal sodium 10 mg/Kg i.p.): completely blocked | animals manifesting convulsions ([7]; 10 mg/kg i.p.): None | protection against convulsions ([8]; 20 mg/kg orally): 100%

NCCCC(=O)O [GABA]
anticonvulsant effect ([7]; 50 or 100 mg/kg i.p. (either dose), pentetrazol 80 mg/kg i.p.): no anticonvulsant effect | protection against convulsions ([8]; high dose 200 mg/kg orally): 20% | protection against convulsions ([8]; low dose 100 mg/kg orally): 10%
